These results are taken from patent publication US10889569B2, “Condensed ring group azacyclobutyl triazole derivative, preparation method therefor and use thereof in medicine” (Jiangsu Hengrui Medicine Co., Ltd., priority 2016, dated 2021).

Assay [1] deals with human V1aR (Homo sapiens (Human), UniProt P37288). As to the kind of experiment: Inhibition activity on human V1aR (Fluo-4 calcium assay, HEK293/human V1aR stably transfected cells). The assay is classed as cell-based. Particulars: vasopressin 3 nM. As to the method:
The inhibition effect of the compounds of the present invention on the activity of human V1 aR protein expressed in HEK293/human V1aR stably transfected cells was determined by the following experimental method:
The pcDNA3.1-V1aR plasmid was transferred into HEK293 cells with the Lipofectamine® 3000 transfection reagent; G418 was added on the next day to screen, and monoclonal cell lines were selected.
(§1) HEK293/human V1aR stably transfected cells were inoculated in a 96-well plate with an inoculation density of 25,000 cells/well one day in advance. On the next day, a loading buffer containing Fluo-4 dye was formulated using the reagents in the Fluo-4 NW calcium assay kit, and the culture medium was then removed; 100 μl of the loading buffer containing Fluo-4 dye were added to each well, and the plate was incubated at 37° C. for 30 minutes. After that, the plate was moved to room temperature and equilibrated for 10 minutes. The compounds were formulated at 10^6, 10^5, 10^4, 10^3, 10^2 and 10^1 nM. 1 μl of the compounds in each concentration was added to each well, and the plate was incubated at room temperature for 10 minutes. 50 μl of vasopressin polypeptide (3 nM) were automatically added by the machine, and the values were immediately detected at 494/516 nM by the flexstation 3 microplate reader. IC50 values of the compounds were calculated by Graphpad prism software using fluorescence signals corresponding to different concentrations.
The inhibition activity of the compounds of the present invention on human V1aR was determined by the above test, and the obtained IC50 values are shown in Table 2.

The target in assay [2] is human OTR (Homo sapiens, UniProt P30559). The assay is described as follows: Inhibition activity on human OTR (Fluo-4 calcium assay, HEK293/human OTR stably transfected cells). The format is cell-based. To be noted: oxytocin 3 nM. As to the method: The inhibition effect of the compounds of the present invention on the activity of human OTR protein expressed in HEK293/human OTR stably transfected cells was determined by the following experimental method:
The pcDNA3.1-hOTR plasmid was transferred into HEK293 cells with the Lipofectamine® 3000 transfection reagent; G418 was added on the next day to screen, and monoclonal cell lines were selected.
as §1, with “OTR” for “V1aR”, “oxytocin” for “vasopressin”
The inhibition activity of the compounds of the present invention on human OTR was determined by the above test, and the obtained IC50 values are shown in Table 1.

Sequence of human V1aR (P37288 whole entry): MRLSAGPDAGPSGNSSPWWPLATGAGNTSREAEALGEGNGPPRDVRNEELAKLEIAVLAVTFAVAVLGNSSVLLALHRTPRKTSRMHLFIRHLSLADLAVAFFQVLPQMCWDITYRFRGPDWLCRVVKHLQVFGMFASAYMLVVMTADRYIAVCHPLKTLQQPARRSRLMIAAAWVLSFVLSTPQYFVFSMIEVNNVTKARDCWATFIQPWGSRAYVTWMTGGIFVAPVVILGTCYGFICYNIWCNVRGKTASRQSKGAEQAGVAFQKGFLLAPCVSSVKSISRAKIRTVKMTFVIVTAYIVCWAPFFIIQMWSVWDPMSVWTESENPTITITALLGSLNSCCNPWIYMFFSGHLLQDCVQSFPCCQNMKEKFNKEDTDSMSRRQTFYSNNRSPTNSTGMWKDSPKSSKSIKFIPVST

Take `COCc1nnc(N2CC(n3cc(C#N)c4cc(F)ccc43)C2)n1-c1ccc(OC)nc1` [Example 13, 5-Fluoro-1-(1-(5-(methoxymethyl)-4-(6-methoxypyridin-3-yl)-4H-1,2,4-triazol-3-yl)azetidin-3-yl)-1H-indole-3-carbonitrile]: the concentration for half-maximal inhibition (IC50) in assay [1] was determined as 11.9 µM.
Consider `COCc1nnc(N2CC(n3cc(Cl)c4cc(F)ccc43)C2)n1-c1ccc2c(c1)OCO2` [Example 3, 1-(1-(4-(Benzo[d][1,3]dioxolan-5-yl)-5-(methoxymethyl)-4H-1,2,4-triazol-3-yl)azetidin-3-yl)-3-chloro-5-fluoro-1H-indole], for which the IC50 in assay [1] is 7 µM.
As to `COCc1nnc(N2CC(n3cc(C(F)(F)F)c4cc(F)ccc43)C2)n1-c1ccc(OC)nc1` [Example 7, 5-Fluoro-1-(1-(5-(methoxymethyl)-4-(6-methoxypyridin-3-yl)-4H-1,2,4-triazol-3-yl)azetidin-3-yl)-3-(trifluoromethyl)-1H-indole], in assay [1], the IC50 worked out at 6.7 µM.
In the case of `COCc1nnc(N2CC(n3ccc4cc(F)ccc43)C2)n1-c1ccc(OC)nc1` [Example 25, 5-Fluoro-1-(1-(5-(methoxymethyl)-4-(6-methoxypyridin-3-yl)-4H-1,2,4-triazol-3-yl)azetidin-3-yl)-1H-indole], the half-maximal inhibitory concentration (IC50) in assay [2] was determined as 23 nM.
On to `CCOCc1nnc(N2CC(n3cc(Cl)c4cc(F)ccc43)C2)n1-c1ccc(OC)nc1` [Example 4, 3-Chloro-1-(1-(5-(ethoxymethyl)-4-(6-methoxypyridin-3-yl)-4H-1,2,4-triazol-3-yl)azetidin-3-yl)-5-fluoro-1H-indole], for which, in assay [1], the IC50 stood at 2.3 µM.
Take `CCOCc1nnc(N2CC(n3cc(C)c4cc(F)ccc43)C2)n1-c1ccc(OC)nc1` [Example 5, 1-(1-(5-(Ethoxymethyl)-4-(6-methoxypyridin-3-yl)-4H-1,2,4-triazol-3-yl)azetidin-3-yl)-5-fluoro-3-methyl-1H-indole]: the IC50 in assay [2] was determined as 188 nM.
`COc1ccc(-n2c(C)nnc2N2CC(n3cc(C)c4cc(F)ccc43)C2)cn1` [Example 6, 5-Fluoro-1-(1-(4-(6-methoxypyridin-3-yl)-5-methyl-4H-1,2,4-triazol-3-yl)azetidin-3-yl)-3-methyl-1H-indole]: in assay [1], the IC50 worked out at 4.7 µM.
